From publication PMC6797648 (Targeted Oncology, 2019)
Where “and” joins values, the source holds several entries; their conditions need not be identical. Equal values may be shown once. Each block holds one compound with its values, some of them ahead of it.

Tests used:
[1] = Caco-2 permeability and percent recovery; conditions: human, Caco-2, pH 7.4
[2] = Blood to plasma ratio in human whole blood; type: in vitro ADME; conditions: from the human B:P of 1.4
PIK3CD/PIK3R1 = PIK3CD/PIK3R1 (Homo sapiens, UniProt O00329); assay: Purified enzyme-binding kinetics
PIK3CD/PIK3R1, sequence (O00329 whole entry): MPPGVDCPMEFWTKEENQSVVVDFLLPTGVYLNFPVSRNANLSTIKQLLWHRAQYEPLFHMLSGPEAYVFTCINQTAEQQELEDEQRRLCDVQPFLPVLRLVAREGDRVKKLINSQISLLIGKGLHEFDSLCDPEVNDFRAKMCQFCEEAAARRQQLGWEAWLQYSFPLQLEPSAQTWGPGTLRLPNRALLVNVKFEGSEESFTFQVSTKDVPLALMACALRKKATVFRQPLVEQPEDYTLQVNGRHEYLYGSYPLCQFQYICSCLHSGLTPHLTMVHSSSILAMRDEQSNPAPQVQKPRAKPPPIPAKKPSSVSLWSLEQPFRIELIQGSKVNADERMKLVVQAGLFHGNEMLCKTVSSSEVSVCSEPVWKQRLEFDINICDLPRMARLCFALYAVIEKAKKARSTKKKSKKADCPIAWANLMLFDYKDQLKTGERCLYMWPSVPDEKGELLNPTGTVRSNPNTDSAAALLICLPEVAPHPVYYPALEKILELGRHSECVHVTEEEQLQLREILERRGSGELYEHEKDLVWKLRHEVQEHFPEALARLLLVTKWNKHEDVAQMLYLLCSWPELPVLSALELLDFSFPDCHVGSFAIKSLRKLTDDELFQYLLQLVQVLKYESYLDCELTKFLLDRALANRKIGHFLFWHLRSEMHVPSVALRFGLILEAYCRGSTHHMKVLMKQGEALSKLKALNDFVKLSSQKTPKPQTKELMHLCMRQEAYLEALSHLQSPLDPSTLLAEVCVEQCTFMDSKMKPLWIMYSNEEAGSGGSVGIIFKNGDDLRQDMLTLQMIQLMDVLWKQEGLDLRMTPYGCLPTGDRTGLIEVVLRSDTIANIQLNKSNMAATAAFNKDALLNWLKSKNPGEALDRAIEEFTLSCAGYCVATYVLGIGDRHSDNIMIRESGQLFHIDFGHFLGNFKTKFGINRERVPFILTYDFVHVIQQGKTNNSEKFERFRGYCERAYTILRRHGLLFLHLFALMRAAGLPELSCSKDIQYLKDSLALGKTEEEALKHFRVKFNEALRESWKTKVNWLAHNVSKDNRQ
PIK3CD/PIK3R1, sequence (P27986 whole entry partner): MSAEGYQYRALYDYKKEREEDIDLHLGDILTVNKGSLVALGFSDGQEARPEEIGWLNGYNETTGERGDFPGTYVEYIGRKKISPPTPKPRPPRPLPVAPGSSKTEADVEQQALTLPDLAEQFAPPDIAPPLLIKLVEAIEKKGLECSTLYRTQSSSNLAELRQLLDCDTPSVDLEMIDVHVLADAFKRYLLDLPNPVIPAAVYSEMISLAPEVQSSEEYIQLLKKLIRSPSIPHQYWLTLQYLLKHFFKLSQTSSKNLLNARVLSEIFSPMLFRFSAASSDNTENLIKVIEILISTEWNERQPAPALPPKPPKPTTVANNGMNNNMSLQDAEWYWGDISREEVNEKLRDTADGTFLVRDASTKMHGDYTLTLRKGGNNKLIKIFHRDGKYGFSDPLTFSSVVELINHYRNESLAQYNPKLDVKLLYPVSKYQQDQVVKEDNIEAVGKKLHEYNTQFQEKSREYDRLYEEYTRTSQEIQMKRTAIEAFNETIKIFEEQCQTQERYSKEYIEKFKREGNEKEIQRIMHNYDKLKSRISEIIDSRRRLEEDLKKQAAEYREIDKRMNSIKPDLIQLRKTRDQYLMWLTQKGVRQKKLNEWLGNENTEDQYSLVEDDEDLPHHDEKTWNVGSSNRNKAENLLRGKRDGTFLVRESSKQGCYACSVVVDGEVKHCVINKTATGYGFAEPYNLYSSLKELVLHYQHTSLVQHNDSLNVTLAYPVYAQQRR

[3] = Single-dose oral and IV pharmacokinetics in beagle dogs; type: in vivo, beagle dog
[4] = Allometric scaling of VSS to a hypothetical 60-kg human
[5] = Plasma and tissue distribution in A20 syngeneic model; type: in vivo, BALB/c mice; conditions: for Tumor concentration, times higher than plasma concentration: 4 h after the last dose
[6] = healthy volunteers, oral; cited from earlier work
[7] = tested on: peripheral blood basophils; conditions: healthy volunteers, oral administration, CD63 expression following ex vivo stimulation; cited from earlier work
PI3Kδ = conditions: read-out: IC50, inhibition of PI3Kδ in cellular assays; cited from earlier work
purified PI3Kδ enzyme = conditions: read-out: IC50, inhibition of purified PI3Kδ enzyme; cited from earlier work
Caco-2 cell monolayer = assay: Caco-2 permeability and percent recovery
[8] = ME-401 versus idelalisib, in vitro
[9] = 50 mg/kg twice daily for 4 days
[10] = 1 µM, Caco-2, apical to basolateral
[11] = 1 µM, Caco-2, basolateral to apical

- Papp at 2 h, 10 uM [1]: > 300 nm/s
Structure (SMILES): CC(C)NCC(O)COc1cccc2ccccc12 (stereo not drawn) [propranolol, reference compound]

- Drug in the blood that distributes into blood cells at equilibrium [2]: approximately 60%
- Residence time (PIK3CD/PIK3R1; 22 °C): ~5 h and 5.3 h
- kd dissociation rate constant (PIK3CD/PIK3R1; 22 °C, 1:1 binding model): 5.2e-05 s⁻¹
- Binds more tightly than idelalisib (PIK3CD/PIK3R1; [8]): ~ 37 times
- Remains on-target longer than idelalisib (PIK3CD/PIK3R1; [8]): ~ 138 times
- Kd (PIK3CD/PIK3R1; read-out: KD equilibrium dissociation constant, 22 °C, 1:1 binding model): 0.03 nM and 0.0303 nM
- AUCinf ([3]; dogs, 2 mg/kg IV): 1.247 µg·h/mL
- Bioavailability ([3]; dogs, oral 2 mg/kg versus IV 2 mg/kg): 79%
- AUCinf ([3]; fasted dogs, 2 mg/kg orally): 0.98 µg·h/mL
- Extrapolated human VSS, times higher than blood volume [4]: approximately 100 times
- Extrapolated human VSS, times higher than whole body volume [4]: approximately 15 times
- Extrapolated human VSS, times larger than that reported for idelalisib [4]: ~ 28 times
- Tumor concentration, times higher than plasma concentration [5, 9]: approximately 20 times
- Brain tissue concentration as percent of plasma values ([5]; 75 mg/kg twice daily for 4 days, 4 and 24 h after the last dose): approximately 30%
- Tumor concentration, times higher than plasma concentration ([5]; 75 mg/kg twice daily for 4 days): approximately 30 times
- Decrease of tumor levels at 24 h compared with levels at 4 h ([5]; oral administration, A20 syngeneic mouse model): 30–50%
- Retained in the monolayer (Caco-2 cell monolayer; 1 µM, Caco-2): ~ 50%
- Recovery, AB, cell lysate included (Caco-2 cell monolayer; [10]): 79.3 ± 5.5%
- Recovery, AB, only the experimental solutions measured (Caco-2 cell monolayer; [10]): 30.3 ± 6.7%
- Recovery, BA, cell lysate included (Caco-2 cell monolayer; [11]): 85 ± 8.5%
- Recovery, BA, only the experimental solutions measured (Caco-2 cell monolayer; [11]): 69 ± 5.6%
- AB Papp (Caco-2 cell monolayer; apical to basolateral, Caco-2, pH 7.4, 2 h, 37 °C): 3.67 ± 1.37 × 10^−6 cm/s
- BA Papp (Caco-2 cell monolayer; basolateral to apical, Caco-2, pH 7.4, 2 h, 37 °C): 7.69 ± 1.39 × 10^−6 cm/s
Structure (SMILES): CN1CCC(c2ccccc2CC(C)(C)Nc2nc(N3CCOCC3)nc(-n3c(C(F)F)nc4ccccc43)n2)CC1 [ME-401]
- Half-life [6]: 28 h
- EC90 plasma concentration, inhibition of basophil activation [7]: 5 ng/mL
- IC50 (PI3Kδ): 0.6 nM
- IC50 (purified PI3Kδ enzyme): 5 nM

- Dissociation rate, times higher than ME-401 (PIK3CD/PIK3R1; idelalisib versus ME-401): ~ 100 times
- Tumor concentration, times higher than plasma concentration [5, 9]: approximately three times higher
Structure (SMILES): CC[C@H](Nc1ncnc2[nH]cnc12)c1nc2cccc(F)c2c(=O)n1-c1ccccc1 [Idelalisib, idelalisib, reference compound]
